Structures are written as SMILES.

Series [1] relates to rotenone-inhibited Complex I. The series is described as follows: Complex I-bypass assay (high-resolution respirometry, O2 consumption). It counts as cell-based, human. As to conditions: titrated into rotenone-inhibited Leigh fibroblasts, n=6. Here is the method:
All high-resolution respirometry experiments were conducted using the Oroboros O2k-Fluorespirometer (Oroboros, Innsbruck, Austria). The Oroboros O2k-Fluorespirometer was calibrated daily using the air calibration protocol on DatLab 7.4 (Oroboros, Innsbruck, Austria). Prior to each experiment requiring the fluorescence module, the AmpR calibration protocol from DatLab 7.4 was used to calibrate the fluorescence signal. Initial data analysis, including setting of marks, was performed using DatLab 7.4.
Complex I-bypass activity was assessed using HRR to measure O2 consumption. […] Values were exported and analyzed using GraphPad Prism 9. […]
Statistical analysis was performed using GraphPad Prism 9. […] RET Assay data were analyzed by 2-way ANOVA using a p-value of 0.05.
Using this assay, the ability of Compounds 1 to 4 and Vatiquinone to bypass rotenone-inhibited Complex I was determined. […] The ability of Compounds 1 to 4 and Vatiquinone to “bypass” Complex I and restore OXPHOS is measured by an increase in oxygen consumption rate following addition of the compound to the chamber.
In executing this assay, in each instance, fibroblasts are added to each chamber of the Oroboros Oxygraph-2K (the “O2k”). […] The addition of rotenone is expected to cause a marked reduction of OXPHOS as measured by a decreased rate of oxygen consumption. […]

Series [2] relates to Healthy (GM08402) fibroblasts. The series is described as follows: RSL3 cytoprotection assay, healthy fibroblasts. Format: cell-based, human. As to conditions: for anti-ferroptosis properties compared among test articles: 1 μM RSL3, 4 hours, FIG. 8. As for the experimental part:
(§1) Patient fibroblasts were acquired from Coriell Institute for Medical Research (Camden, NJ, USA). GM03672 is an untransformed fibroblast cell line from a Leigh syndrome patient carrying an unknown mutation. GM08402 is an untransformed fibroblast from an apparently healthy individual. Cells were cultured at 37° C. at 5% CO2 in Eagle's Minimum Essential Medium (MEM, Corning), which was supplemented with Earle's salts and non-essential amino acids, 15% qualified fetal bovine serum, and 1% penicillin/streptomycin ([…]) to yield “Complete MEM.”
(§2) To initiate the RSL3 cytoprotection experiment, Healthy (GM08402) and Leigh syndrome (GM03672) fibroblasts were resuspended in Complete MEM. Cells were seeded at 10,000 cells per well in a clear, tissue cultured-treated, 96-well plate and incubated at 37° C. overnight. Following the incubation, supernatant was manually aspirated, taking care not to disrupt cells. […]. Luminescence units were quantified by GEN5 software on a BioTek SYNERGY neo2 plate reader (LUM filter).
(§3) RSL3 is an inhibitor of the enzyme glutathione peroxidase 4 (GPX4), which decreases lipid peroxides. RSL3 inhibition of GPX4 induces ferroptosis through iron-dependent accumulation of lipid ROS. In this assay, Healthy or Leigh fibroblasts were treated for 4 hours with RSL3 to induce ferroptosis or left untreated. Endogenous ATP levels were measured as an indicator of cellular viability using a commercially available kit (CellTiter-Glo® 2.0 Cell Viability Assay (Promega)).
(§4) […]. […] Briefly, ferroptosis was induced with 1 μM RSL3 in healthy fibroblast cells and 375 nM RSL3 in fibroblasts from a patient with Leigh syndrome.
(§5) A preliminary experiment was performed to determine the effect of RSL3 injury on the fibroblasts of a healthy individual (cell line: GM08402) and the fibroblasts of a patient diagnosed with Leigh syndrome (cell line: GM03672).

Series [3] concerns Leigh syndrome (GM03672) fibroblasts. In words: RSL3 cytoprotection assay, Leigh fibroblasts. The settings on record: for anti-ferroptosis properties compared among test articles: RSL3, 4 hours, FIG. 9. It counts as cell-based, human. Here is the method:
as §1, §2, §3, §4, §5

Series [4] has as its system 15-lipoxygenase (15-LO). The series is described as follows: 15(S)-HETE ELISA following RSL3 treatment, Leigh fibroblasts. It counts as cell-based, human. The settings on record: 700 nM RSL3, 1 μM compound, FIG. 11. Here is the method: (§6) Samples for the 15(S)-HETE ELISA were generated by the RSL3 cytoprotection assay described above. Healthy or Leigh fibroblasts were resuspended in assay medium, seeded at 200,000 cells per well in a clear, tissue culture-treated, 24-well plate. Cells were incubated at 37° C. for 24 hours. Supernatant was aspirated from each well following the incubation.
(§7) Fibroblasts from both a healthy individual and a patient diagnosed with Leigh syndrome were examined (but not all compounds were examined in each cell type). Activation of ferroptosis has been implicated as a driver of epilepsy, which is commonly associated with Leigh syndrome. […] Kahn-Kirby et al. PLOS One. […] As a key regulator of ferroptosis, 15-LO serves as a rational therapeutic target in Leigh syndrome.

Series [5] deals with Healthy (GM08402) fibroblasts. The series is described as follows: Erastin cytoprotection assay, healthy fibroblasts. It counts as cell-based, human. As to conditions: 2 μM erastin, 24 hours, FIG. 12. Here is the method:
(§8) Briefly, Healthy (GM08402) or Leigh (GM03672) fibroblasts were resuspended in assay medium, seeded at 10,000 cells per well in a clear, tissue cultured-treated, 96-well plate, and incubated at 37° C. overnight. Following the incubation, supernatant was manually aspirated from wells, taking care not to disrupt cells. Fibroblasts were co-treated in a final volume of 100 μL with 2 μM erastin (Millipore Corp., Cat #), 250 μM ferric ammonium citrate (FAC), 50 µM ascorbic acid (AA), and a titration of one of each of Compounds 1 to 4 or Vatiquinone ranging from 10 to 1000 nM. Following another 24-hour incubation at 37° C., cell viability was measured using the CellTiter-Glo Luminescent Cell Viability Kit (ProMega) per Manufacturer's instructions. Luminescence units were quantified by GEN5 software on a BioTek SYNERGY neo2 plate reader (LUM filter).
(§9) Briefly, erastin, like RSL3, is known to induce ferroptosis. […] Erastin was incubated with cell fibroblasts for 24 hours to induce ferroptosis. Cells were co-treated with each of Compounds 1 to 4, or Vatiquinone as the test articles. Test articles were administered at a range of concentrations to derive a curve. Cell viability was determined using a commercially available kit that measures ATP production. […] An increase in cell viability as determined by the assay is considered to be protective against ferroptosis.

For series [6], the system named is Leigh (GM03672) fibroblasts. In words: Erastin cytoprotection assay, Leigh fibroblasts. Format: cell-based, human. The settings on record: 2 μM erastin, 24 hours, FIG. 13. Here is the method:
as §8, §9

The subject of series [7] is 15-lipoxygenase (15-LO). In words: 15(S)-HETE ELISA following RSL3 treatment, healthy fibroblasts. The settings on record: 700 nM RSL3, 1 μM compound, FIG. 10. It counts as cell-based, human. As for the experimental part:
as §6, §7

The test system of series [8] is 15-lipoxygenase (15-LO). The series is described as follows: 15(S)-HETE ELISA following erastin treatment, healthy fibroblasts. The settings on record: erastin + FAC + AA, FIG. 14. It counts as cell-based, human. As for the experimental part:
(§10) Samples for the 15(S)-HETE ELISA were generated by the Erastin Assay described above. Healthy or Leigh fibroblasts were resuspended in assay medium, seeded at 200,000 cells/well in a clear, tissue culture-treated, 24-well plate, and incubated at 37° C. for 24 hours. Supernatant was aspirated from each well.
(§11) Ferroptosis was induced using erastin at 2 μM concentration. 15(S)-HETE, which is a metabolite of arachidonic acid and generated by activity of 15-LO, was measured using a commercially available ELISA kit. Data were normalized to the “No treatment” group, which represented fibroblasts that were not injured with erastin.

Series [9] concerns 15-lipoxygenase (15-LO). In words: 15(S)-HETE ELISA following erastin treatment, Leigh fibroblasts. It counts as cell-based, human. As to conditions: erastin + FAC + AA, FIG. 15. Here is the method:
as §10, §11

Series [10] is described as follows: Pharmacokinetics of Compound 2 after single intravenous, subcutaneous or oral administration. As to conditions: rat, 1 mg/kg IV, 10 mg/kg SC, 10 mg/kg PO. It counts as in vivo. Here is the method: • Animals: Rat/Sprague Dawley/Male/Naive 225-250 grams were received from an approved vendor. • Animals were fasted overnight prior to dose administration. Food was returned following the 2 hour sample collection. • Body weights were recorded prior to dose administration. The volume of each dose delivered (ml/kg) was based on each individual animal's body weight. • This was a single dose, serial blood collection study with tissues collected for possible future analysis. • Doses were administered in accordance with test facility standard operating procedures. […].
b) Sample collection—Post Dosing: • Blood samples were collected via jugular vein catheter (JVC) and transferred to tubes with appropriate anticoagulant. The tubes were stored on wet ice until processed to plasma by centrifugation (3500 rpm at 5° C. for 10 minutes) within 20 minutes of collection. Sample aliquots of 100 μL were transferred into individual uniquely labeled matrix tubes containing 10 μL of 5% (v/v) formic acid aqueous solution and stored at nominal −80° C. until analyzed by LC/MS/MS. • Immediately following final serial blood collection (24 hours, JVC), animals were sacrificed and perfused with cold PBS. […]

For `COC1=C(OC)C(=O)C(CCCCCCCCCC(F)(F)F)=C(C)C1=O` [Compound 1], the “oxygen consumption rate after rotenone inhibition” value in series [1] is “restored oxygen consumption rate in a dose-dependent manner”. Also, the “anti-ferroptosis properties compared among test articles” value in series [2] and in series [3] was “roughly equivalent” throughout. The “15-LO inhibition compared among test articles” value in the series on 15-lipoxygenase (15-LO) [4] is “superior to Compounds 2, 3 and 4”. Also, the “protective effect compared among test articles” value in [5] and in series [6] was “about equally protective” throughout.

Regarding `CC1=C(C)C(=O)C(CC[C@@](C)(O)CC/C=C(\C)CCC=C(F)F)=C(C)C1=O` [Compound 2], the “anti-ferroptosis properties compared among test articles” value in series [2] is “superior to Compounds 1, 4 and Vatiquinone”; in series [3], “superior to Compounds 1, 4 and Vatiquinone”. For the same compound, the “inhibition of 15-lipoxygenase (15(S)-HETE in supernatant)” value with 15-lipoxygenase (15-LO) [7] (24 hours) was “inhibited 15-lipoxygenase”. Further, in the series with 15-lipoxygenase (15-LO) [7], the “15-lipoxygenase inhibition compared among test articles” value is “roughly equivalent protective effect”. The “15-LO inhibition compared among test articles” value is “roughly equivalent protective effect” with 15-lipoxygenase (15-LO) [4], “slightly less effective” in the series on 15-lipoxygenase (15-LO) [8] and “slightly less effective” with 15-lipoxygenase (15-LO) [9]. Further, the “protective effect compared among test articles” value in [5] and in [6] was “superior in their protective effect” each time. The tolerability entry in series [10] is on record as “well tolerated”. The “delivery by mode of administration” value in series [10] (preliminary) is “effectively administered”.

In the case of `COC(=O)c1ccc([C@H]2c3[nH]c4ccccc4c3C[C@H](C(=O)OC)N2C(=O)CCl)cc1` [RSL3, (1S,3R)-Methyl 2-(2-chloroacetyl)-2,3,4,9-tetrahydro-1-[4-(methoxycarbonyl)phenyl]-1H-pyrido[3,4-b]indole-3-carboxylate, reference compound], the “concentration sufficient for 25-30% killing of cells” value came to 1 µM in series [2] (healthy fibroblasts, FIG. 7) and 700 nM in [3] (Leigh fibroblasts, FIG. 7).

(Values after US20250144049A1, “METHODS, COMPOSITIONS, AND USES RELATED TO THE TREATMENT AND PREVENTION OF LEIGH SYNDROME” (Stealth BioTherapeutics Inc., priority 2023, published 2025).)
